The subject of assay [1] is non-alcoholic steatohepatitis (NASH) model mice (HFDT). As to the kind of experiment: NASH treatment study in HFDT-fed NASH model mice. Conditions: for increase in liver weight / blood ALT (GPT) value, index of liver inflammation: HFDT NASH mice, 8 weeks; for increase in liver weight: FIG. 1 (A); for blood ALT (GPT) value, index of liver inflammation: FIG. 1 (B). As to the method:
Animal experiments were performed using non-alcoholic steatohepatitis (NASH) model mice to test the compounds according to the present invention for the therapeutic effect on NASH.
NASH model mice (hereinafter referred to as “NASH mice”) were produced by feeding a high-fat diet containing trans fatty acids (HFDT) to individual male laboratory mice (C57BL/6J) for 8 weeks. […] In addition, a normal diet was given to individual male laboratory mice (C57BL/6J) for 8 weeks to prepare control mice.

In assay [2] the test system is mice with induction of colitis. Conditions: oral administration; cited from earlier work.
A further assay deals with T1, Pin1 (Homo sapiens, UniProt Q13526).
T1 construct: endogenous in cells; host or cells: 293T cells
T1 sequence (Q13526 whole entry): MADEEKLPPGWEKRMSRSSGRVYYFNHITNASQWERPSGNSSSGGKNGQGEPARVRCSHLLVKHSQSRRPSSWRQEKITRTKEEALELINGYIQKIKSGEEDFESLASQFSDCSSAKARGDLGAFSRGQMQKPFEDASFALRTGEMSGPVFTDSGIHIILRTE
As to the kind of experiment: Cell-based Pin1 inhibition assay with AMPK phosphorylation level as index (293T cells). Set-up: key: +++: a higher level of AMPK phosphorylation is promoted, as compared with C1; ++: a similar level of AMPK phosphorylation is promoted, as compared with C1; +: a lower level of AMPK phosphorylation is promoted, as compared with C1; −: no or almost no promotion is found in AMPK phosphorylation. Conditions: compound at 100 μM for 30 minutes, then 10 mM 2-DG for one hour, pAMPK blot compared with C1. As to the method: To evaluate the inhibitory activity of each compound synthesized in Example 1 against the function of Pin1, a cell-based assay was performed according to the method previously developed by the inventors (Yusuke Nakatsu et al., Journal of Biological Chemistry, 2015, Vol. 290, No. 40, pp. 24255-24266), in which the phosphorylation level of AMPK (AMP-activated protein kinase), a protein whose phosphorylation is inhibited by Pin1, was examined as an index.
Briefly, 293T cells were plated on a collagen-coated 24-well plate. Forty-eight hours later, each compound synthesized in the preceding example (at 100 μM) was added to the plate, and the plate was left to stand in an incubator for 30 minutes. Subsequently, 10 mM 2-DG was added to the plate, and one hour later, each sample was collected with a buffer containing mercaptoethanol and SDS.
SDS-PAGE and blotting were performed, and blocking was then performed with 3% BSA for 1 hour, according to conventional protocols. Subsequently, a pAMPK antibody (Cell Signaling; diluted 1:2000 in Can Get Signal Solution 1, Toyobo) as a primary antibody, and an HRP-linked anti rabbit IgG (GE Healthcare; diluted 1:4000 in Can Get Signal Solution 2, Toyobo) as a secondary antibody were allowed to react at ambient temperature for 1 hour prior to detection.
The inhibitory activity against the function of Pin1 was evaluated by comparing the inhibition levels between each compound and a known Pin1 inhibitor, C1, as indicated below: […]

The next assay relates to DU145 cells. As to the kind of experiment: Cancer treatment study, DU145 tumors implanted in nude mice. The class given is in vivo, nude mice (BALB/c-slc-nu/nu mice). Conditions: intraperitoneal 2.5 mg/kg/day, 5 times a week, 9 weeks, compared to control mice; for tumor size growth, first tumor (tumor volume ratio): FIG. 4 (A); for tumor size growth, second tumor (volume): FIG. 4 (B). The method, then: An animal experiment was performed using mice transplanted with cancer cells to test the therapeutic effects of the compounds according to the present invention on cancer.
A first tumor (DU145 cells) with Matrigel plug was implanted in the middle of the upper back of nude mice (BALB/c-slc-nu/nu mice).
Five weeks after the first implantation, a second tumor (DU145 cells) was implanted in the middle of the left and right sides of the back of the nude mice.
No compound was administered to a group of mice to prepare control mice.
The volume of the second tumor was so small and not measurable at the beginning of administration of each compound. Therefore, the result from the second tumor is expressed in volume (mm^3), but not in ratio.

The test system of assay [3] is NASH mice (methionine-choline-deficient diet). Put plainly: NASH treatment study in MCDD-fed NASH mice, liver sections with Azan staining. The class given is in vivo, mice (C57BL/6J). Conditions: NASH mice given a MCDD, 8 weeks; intraperitoneal 2.5 mg/kg/day three times a week; FIG. 3 (C). As to the method: Next, an animal experiment was performed on NASH mice that were produced by feeding a methionine-choline-deficient diet (MCDD).

For another assay, the system named is colon cancer model mice. Put plainly: Colon cancer model mice (AOM/DSS) treatment study. It is filed as in vivo. Conditions: oral 1.25 mg/kg/day three times a week from Day 6, dissected on Day 89, versus control. As to the method:
Colon cancer model mice were produced by intraperitoneal administration of azoxymethane (AOM) at a dose of 12 mg/kg to laboratory mice on Day 1, and then starting a course consisting of 5-day oral administration of 3% sodium dextran sulfate (DSS) and 16-day no DSS administration, on Day 6, and repeating the course 4 times, to induce colon inflammation and subsequent cancer development.
On Day 89, the colon cancer model mice were dissected to count the number of developed colon cancer tissues and to measure tumor area occupied by a single colon cancer tissue (total tumor area/tumor tissue number).

[4] abbreviates: intraperitoneal 2.5 mg/kg/day or oral 5.0 mg/kg/day, three times a week.

Consider 19 compounds from patent US11504379B2, “Amide compound, and Pin1 inhibitor, therapeutic agent for inflammatory diseases and therapeutic agent for cancer that use the same” (Hiroshima University, priority 2017, dated 2022).

With `O=C1C=CC(=O)c2c(O)cccc21` [Juglone, reference compound], in assay [1] (oral 5.0 mg/kg/day three times a week), the “increase in liver weight” value is listed as “significantly reduced”. Further, in assay [2], the colitis development result is on record as “prevention of colitis development”.
In the case of `O=C(O)[C@@H](Cc1ccc2ccccc2c1)NC(=O)n1c2ccccc2c2ccccc21` [Compound H-163], the Pin1 inhibition activity result on Pin1 was “++”. Moreover, in the assay with DU145 cells, the “tumor size growth, first tumor (tumor volume ratio)” value was “suppressed” and the “tumor size growth, second tumor (volume)” value is recorded as “suppressed”. Moreover, in assay [1] (setting [4]), the “increase in liver weight” value is on record as “significantly reduced” and the “blood ALT (GPT) value, index of liver inflammation” value was “decreased”. Also, in assay [1] (NASH mice given a HFDT, FIG. 2 (C)), the “fat accumulation in liver tissue (microscopic observation)” value is reported as “significantly reduced fat accumulation”. In addition, in assay [3], the “fat accumulation in liver tissue (microscopic observation)” value is given as “significantly reduced fat accumulation” and the “hepatic fibrosis (Azan staining)” value is on record as “significantly inhibited”. In addition, in the assay with colon cancer model mice, the “number of colon cancer tissues” value was “no significant difference”. For the same compound, the “tumor area occupied by a single colon cancer tissue” value in the assay on colon cancer model mice (FIG. 5) is “reduction in tumor area”.
As to `O=C(O)[C@@H](Cc1ccc2ccccc2c1)NC(=O)C1(O)c2ccccc2-c2ccccc21` [Compound H-101], the Pin1 inhibition activity entry on Pin1 was “++”.
As for `O=C(Nc1ccccc1Oc1ccccc1)N[C@H](Cc1ccc2ccccc2c1)C(=O)O` [Compound H-334], the Pin1 inhibition activity result at Pin1 is given as “+++”.
Same read-out and setting: the value for `COC(=O)c1ccc2cc(C(=O)N[C@H](Cc3ccc4ccccc4c3)C(=O)O)ccc2c1` [Compound H-62] was “+”.
On the same count and under the same terms, the value for `O=C(Cn1c2ccccc2c2ccccc21)N[C@H](Cc1ccc2ccccc2c1)C(=O)O` [Compound H-536] was “+”.
In the case of `COc1ccc(-c2cc(C(=O)N[C@H](Cc3ccc4ccccc4c3)C(=O)O)c(C)o2)cc1` [Compound C1, (R)-2-(5-(4-methoxyphenyl)-2-methylfuran-3-carboxamido)-3-(naphthalene-6-yl)propanoic acid], the colitis development entry in assay [2] is “prevention of colitis development”.
Consider `O=C(O)[C@@H](Cc1ccc2ccccc2c1)NC(=O)N(c1ccccc1)c1ccccc1` [Compound H-161], for which the Pin1 inhibition activity result at Pin1 was “++”.
The same measure, in the same setting: the value for `O=C(O)[C@@H](Cc1ccc2ccccc2c1)NC(=O)N1c2ccccc2Oc2ccccc21` [Compound H-162] was “++”.
Consider `O=C(O)[C@@H](Cc1ccc2ccccc2c1)NC(=O)N1c2ccccc2C=Cc2ccccc21` [Compound H-164], for which the Pin1 inhibition activity result on Pin1 is reported as “+”.
Still for that read-out and setting: as for `O=C(Nc1ccc(C(=O)c2ccccc2)cc1)N[C@H](Cc1ccc2ccccc2c1)C(=O)O` [Compound H-341], the entry is “++”; as for `O=C(CC1c2ccccc2-c2ccccc21)N[C@H](Cc1ccc2ccccc2c1)C(=O)O` [Compound H-103], “+++”.
On the same count and under the same terms, the value for `O=C(Cc1ccc2ccccc2c1)N[C@H](Cc1ccc2ccccc2c1)C(=O)O` [Compound H-158] was “++”; that for `O=C(O)[C@@H](Cc1ccc2ccccc2c1)NC(=O)N1c2ccccc2CCc2ccccc21` [Compound H-178] was “+++”.
With `COC(=O)[C@@H](Cc1ccc2ccccc2c1)NC(=O)n1c2ccccc2c2ccccc21` [Compound H-144], in the assay with DU145 cells, the “tumor size growth, first tumor (tumor volume ratio)” value was “suppressed” and the “tumor size growth, second tumor (volume)” value was “suppressed”. For the same compound, in assay [1] (setting [4]), the “increase in liver weight” value is on record as “significantly reduced” and the “blood ALT (GPT) value, index of liver inflammation” value is reported as “decreased”.
For the compound `O=C(N[C@H](Cc1ccc2ccccc2c1)C(=O)O)OCc1ccccc1` [Compound H-65, reference compound], at Pin1, the Pin1 inhibition activity result is reported as “−”.
For the compound `O=C(N[C@H](Cc1ccc2ccccc2c1)C(=O)OCc1ccccc1)C1c2ccccc2-c2ccccc21` [Compound H-105], the Pin1 inhibition activity entry on Pin1 is listed as “−”.
As to `COC(=O)[C@@H](Cc1ccc2ccccc2c1)NC(=O)Cn1c2ccccc2c2ccccc21` [Compound H-521], at Pin1, the Pin1 inhibition activity result is “+”.
Same read-out and setting: as for `O=C(N[C@H](Cc1ccc2ccccc2c1)C(=O)O)C1c2ccccc2-c2ccccc21` [Compound H-109], the entry is “+++”.
